Measurements published in patent US20130029981A1, “COMPOUNDS, COMPOSITIONS, AND METHODS FOR CONTROLLING BIOFILMS” (Katholieke Universiteit Leuven, priority 2009, published 2013).

Columns and labels:
S. Typhimurium ATCC14028 [1] = assay: Static peg assay for prevention of biofilm formation (Calgary device, crystal violet); format: cell-based, Salmonella Typhimurium
How it was run: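 Calgary 96-peg device, ca. 10^6 cells of ATCC14028 per well in TSB 1/20 for 24 h at 25° C (or 48 h at 16° C, medium and compound renewed at 24 h), or in CFA broth for 24 h at 37° C, static, with two-fold compound dilutions. Crystal violet stain, acetic acid extraction, OD570. IC50 from 2–3 independent experiments.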

S. Typhimurium ATCC14028 [2] = assay: Bioscreen assay: influence on planktonic growth curve; format: cell-based, Salmonella Typhimurium; design: key: x: no influence on the planktonic growth at the IC50 for biofilm inhibition; ∘: planktonic growth is retarded at the IC50 for biofilm inhibition; conditions: planktonic growth at the IC50 for biofilm inhibition, 25° C.
Text: (§1) Some of the tested compounds show a concentration range in which biofilm formation is inhibited but no effect on planktonic growth is observed. These compounds are particularly interesting for prevention of biofilm formation since the development of resistance against these compounds is less likely. Table 8 indicates whether the different compounds have an effect on the planktonic growth of the bacteria at the IC50 for biofilm inhibition. To construct Table 8, the effect of the tested compounds on the growth curve of the bacteria was determined at a concentration equal to the IC50 for biofilm inhibition, by using the Bioscreen system available from Oy Growth Curves Ab Ltd). The Bioscreen device from Oy Growth Curves Ab Ltd was used for measuring the influence of the chemical compounds on the planktonic growth of Salmonella Typhimurium and Pseudomonas aeruginosa. The Bioscreen is a computer controlled incubator/reader/shaker that uses 10×10 well microtiter plates and measures light absorbance of each well at a specified wave length in function of time. An overnight culture of S. […] The broth used was TSB 1/20 for the experiments at 16° C. and 25° C. For experiments at 37° C. CFA medium was used for S. […] As a control 3 μl of the appropriate solvent (DMSO or EtOH) was also added to the plate in 3- or 4-fold. The microtiter plate was incubated in the Bioscreen device at 16° C., 25° C. or 37° C. for at least 36 hours, with continious medium shaking. The absorbance of each well was measured at 600 nm each 15 minutes. Excel was used to generate the growth curves for treated the treated wells and the untreated control wells. Some of the compounds show a concentration range in which biofilm formation is inhibited but no effect on the planktonic growth is observed. Table 14 indicates if the different compounds have an effect on the planktonic growth of the bacteria at the IC50 for biofilm inhibition. To construct this table the effect of the compounds on the growth curve of the bacteria was determined at a concentration equal to the IC50 for biofilm inhibtion, by using the Bioscreen system from Oy Growth Curves Ab Ltd.

S. Typhimurium ATCC14028 [3] = assay: as above; format: cell-based, Salmonella Typhimurium; conditions: for Effect on growth at: 40 μM (S. Typhimurium): planktonic growth, 25° C.
Text: as §1

S. Typhimurium ATCC14028 [4] = assay: as above; format: cell-based, Salmonella Typhimurium; design: key: x: no influence on planktonic growth at the IC50 for biofilm inhibition; planktonic growth is retarded at the IC50 for biofilm inhibition; conditions: planktonic growth at the IC50 for biofilm inhibition, 25° C.
Text: as §1, with “Table 14 indicates if the different compounds have an effect on the planktonic growth of the bacteria at the IC50 for biofilm inhibition.” left out

[5] = system: Salmonella Typhimurium ATCC 14028; assay: Antibacterial activity: growth inhibition, OD600 after 24 h (GIC50); format: cell-based; conditions: 25° C.
Method: Evaluation of antibacterial-inhibitory activity of some substituted 2-amino-1H-imidazoles of the invention was carried out by diluting an overnight culture of Salmonella Typhimurium ATCC 14028 into a liquid medium. 200 μl of the diluted overnight culture was added to each well of a microtiter plate together with different concentrations of the test compound (1/2 dilution series of the compound). After an incubation of 24 hours the optical density at 600 nm of each well was determined with a microtiter plate reader.
Starting from a 40 mM stock solution of each compound in DMSO, two-fold serial dilutions in 100 μl liquid broth per well were prepared in dublicate in sterile transparant microtiter plates. The broth used was TSB 1/20 for measurements at 25° C. and CFA (in case of Salmonella Typhimurium) and LBNS (in case of Pseudomonas aeruginosa) for measurements at 37° C. Subsequently an overnight culture of the bacteria (S. Typhimurium ATCC14028 or P. aeruginosa PA14) was diluted 1/200 into the corresponding liquid broth and 100 μl was added to each well of the microtiterplate resulting in a total amout of 200 μl medium per well. After an incubation of 24 hours the optical density at 600 nm of each well was determined with a microtiter plate reader (VERSAmax, Molecular Devices).
Evaluation of antibacterial-inhibitory activity of some substituted imidazo[1,2-a]pyrimidinium bromide salts of the invention was carried out by diluting an overnight culture of Salmonella Typhimurium ATCC14028 or Pseudomonas aeruginosa PA141/200 into liquid medium. 200 μl of the diluted overnight culture was added to each well of a microtiterplate together with different concentrations of the test compound (1/2 dilution series of the compound). After an incubation of 24 hours the optical density at 600 nm of each well was determined with a microtiter plate reader.

[6] = system: Pseudomonas aeruginosa PA14; assay: Static peg assay for prevention of biofilm formation (Calgary device, crystal violet); format: cell-based; conditions: P. aeruginosa PA14, 25° C.; read-out: P. aeruginosa IC50 (biofilm formation)
How it was run: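 P. aeruginosa PA14 overnight TSB culture diluted 1:100 into broth with two-fold compound dilutions, biofilms grown 24 h static on polystyrene pegs of a Calgary device at 25 °C (TSB 1/20), 30 °C or 37 °C (CFA and/or LBNS). Biofilm quantified by crystal violet, extracted with 30% acetic acid, A570.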

S. Typhimurium ATCC14028 [7] = assay: Growth inhibition of planktonic cells in the peg assay plate (OD600); format: cell-based, Salmonella Typhimurium; conditions: Salmonella enterica, ATCC14028, 16° C.
S. Typhimurium SL1344 [8] = assay: as above; format: cell-based; conditions: Salmonella enterica, SL1344, 16° C.
S. Typhimurium SL1344 [9] = assay: Static peg assay for prevention of biofilm formation (Calgary device, crystal violet); format: cell-based; conditions: Salmonella enterica, SL1344, 16° C., read-out: IC50 biofilm inhibition
Method: After an incubation period of 24 hours at 25° C. or 37° C. or 48 hours at 16° C. the biofilms were visualized by crystal violet staining. […] Biofilm formation assays were carried out at 16° C., 25° C. and 37° C. […] Subsequently, an overnight culture of S. […] The pegged lid was placed on the microtiter plate and the plate was incubated for 48 hours at 16° C. or for 24 hours at 25° C. without shaking. During this incubation period biofilms were formed on the surface of the pegs. In case of the assay at 16° C., after 24 hours the lid was transferred into a new plate with medium and the specific molecules used for testing. […] The remaining attached bacteria were stained for 30 minutes with 200 μl 0.1% (w/v) crystal violet in an isopropanol/methanol/PBS solution (v/v 1:1:18). Excess stain was rinsed off by placing the pegs in a 96-well plate filled with 200 μl distilled water per well. After the pegs were air dried (30 min), the dye bound to the adherent cells was extracted with 30% glacial acetic acid (200 μl). The OD570 of each well was measured using the VERSAmax microtiter plate reader.

[10] = 25° C., Table 11, read-out: IC50 (biofilm formation)
[11] = 25° C., Table 14, read-out: IC50 biofilm inhibition
[12] = 25° C., Table 19, read-out: IC50 (biofilm formation)
[13] = S. Typhimurium ATCC 14028, 25° C., read-out: S. Typhimurium IC50 (biofilm formation)
[14] = Salmonella enterica, 25° C., Table 11, read-out: IC50 (biofilm formation)
[15] = Salmonella enterica, 25° C., Table 14, read-out: IC50 biofilm inhibition
[16] = Salmonella enterica, ATCC14028, 16° C., read-out: IC50 biofilm inhibition

COc1cccc(CCN2c3nccc[n+]3CC2(O)c2ccc(Cl)c(Cl)c2)c1.[Br-] (centres unmarked) [Compound 77]
IC50 (S. Typhimurium ATCC14028 [1]; [10]): 7.39 µM
IC50 (S. Typhimurium ATCC14028 [1]; [11]): 7.39 µM
IC50 (S. Typhimurium ATCC14028 [1]; [12]): 7.23 µM
Influence on growth (S. Typhimurium ATCC14028 [2]): x
Effect on growth at 40 μM (S. Typhimurium ATCC14028 [3]; 40 μM): ∘

OC1(c2ccc(F)cc2)C[n+]2cccnc2N1Cc1ccc2c(c1)OCO2.[Br-] (centres unmarked) [Compound 79]
IC50 (S. Typhimurium ATCC14028 [1]; [10]): 29.4 µM
IC50 (S. Typhimurium ATCC14028 [1]; [11]): 29.4 µM
IC50 (S. Typhimurium ATCC14028 [1]; [12]): 17.2 µM
Influence on growth (S. Typhimurium ATCC14028 [4]): ∘
Effect on growth at 400 μM (S. Typhimurium ATCC14028 [3]; 400 μM): ∘
IC50 [5]: 200 µM

Nc1nc(-c2ccc([N+](=O)[O-])cc2)c[nH]1 [Compound 90]
IC50 (S. Typhimurium ATCC14028 [1]; [13]): 17.6 µM
IC50 [6]: 34.5 µM
Effect on growth at: 40 μM (S. Typhimurium) (S. Typhimurium ATCC14028 [3]; 40 μM): ∘

CCCCCNc1ncc(-c2ccc(Cl)c(Cl)c2)[nH]1 [Compound 110]
IC50 (S. Typhimurium ATCC14028 [1]; [13]): 2.2 µM
IC50 [6]: 0.7 µM
Effect on growth at: 40 μM (S. Typhimurium) (S. Typhimurium ATCC14028 [3]; 40 μM): ∘

O=[N+]([O-])c1cccc(C2(O)C[n+]3cccnc3N2C2CCCCCCCCCCC2)c1.[Br-] (centres unmarked) [R1=Cyclododecyl, R3=3-NO2Ph, R4=H, 1-cyclododecyl-2-hydroxy-2-(3-nitrophenyl)-2,3-dihydro-1H-imidazo[1,2-a]pyrimidin-4-ium bromide]
IC50 (S. Typhimurium ATCC14028 [1]; [14]): < 6.25 µM
IC50 (S. Typhimurium ATCC14028 [1]; [15]): < 6.25 µM
Influence on growth (S. Typhimurium ATCC14028 [4]): ∘
IC50 ([5]; Salmonella enterica): 6 to 12 µM

OC1(c2ccc(Br)cc2)C[n+]2cccnc2N1C1CC1.[Br-] (centres unmarked) [R1=Cyclopropyl, R3=4-Br—Ph, R4=H, 1-cyclopropyl-2-hydroxy-2-(4-bromophenyl)-2,3-dihydro-1H-imidazo[1,2-a]-pyrimidin-4-ium bromide]
IC50 (S. Typhimurium ATCC14028 [1]; [14]): 27 µM
IC50 (S. Typhimurium ATCC14028 [1]; [15]): 27 µM
Influence on growth (S. Typhimurium ATCC14028 [2]): x
IC50 ([5]; Salmonella enterica): 25 to 50 µM

c1ccc(Sc2ccc3c(c2)OCO3)c(CNC2=NCCN2)c1 [Specs3-1]
IC50 (S. Typhimurium ATCC14028 [1]; [16]): 42 µM
IC50 (S. Typhimurium ATCC14028 [7]): 417 µM
IC50 (S. Typhimurium SL1344 [8]): 417 µM
IC50 (S. Typhimurium SL1344 [9]): ~65.9 µM

Fc1ccccc1Sc1ccccc1CNC1=NCCN1 [Specs3-3]
IC50 (S. Typhimurium ATCC14028 [1]; [16]): 32.9 µM
IC50 (S. Typhimurium ATCC14028 [7]): 265 µM
IC50 (S. Typhimurium SL1344 [8]): 265 µM
IC50 (S. Typhimurium SL1344 [9]): 68.1 µM

c1ccc(Sc2cccc3ccccc23)c(CNC2=NCCN2)c1 [Specs3-4]
IC50 (S. Typhimurium ATCC14028 [1]; [16]): 16.6 µM
IC50 (S. Typhimurium ATCC14028 [7]): 82.6 µM
IC50 (S. Typhimurium SL1344 [8]): 82.6 µM
IC50 (S. Typhimurium SL1344 [9]): 15.5 µM

Fc1ccc(Sc2ccccc2CNC2=NCCN2)cc1 [Specs3]
IC50 (S. Typhimurium ATCC14028 [1]; [16]): 21.9 µM
IC50 (S. Typhimurium ATCC14028 [7]): 283 µM
IC50 (S. Typhimurium SL1344 [8]): 283 µM
IC50 (S. Typhimurium SL1344 [9]): ~31.8 µM
